Test results from publication PMC9943626, “CS27109, A Selective Thyroid Hormone Receptor-β Agonist Alleviates Metabolic-Associated Fatty Liver Disease in Murine Models” (International Journal of Endocrinology, 2023).
Like-named read-outs stand apart in the source and are kept apart here.

Legend:
[1] = target: T1, hERG (Homo sapiens, UniProt Q12809); experiment: hERG test (QPatch HTX); type: cell-based
T1 construct: Ice Bioscience Co., Ltd. (Beijing, China)
Procedure: hERG test was performed by Ice Bioscience Co., Ltd. (Beijing, China) using the QPatch HTX method according to the manufacturer's instruction. 5 doses of CS27109 were tested, including […], each one with a duplicate. The tested values (current) were normalized to the negative control (0.1% DMSO), and IC50 was calculated based on the normalized data.

[2] = Tissue distribution in SD rat; type: in vivo; details: for concentration at 2 h / concentration at 8 h: male, 10 mg/kg oral gavage once
Description: [Worded in the source for another organism; this organism is reported under the same test.] Half of mice for each group (n = 3) were sacrificed 2H and 8H after drug administration, respectively. Blood, heart, and liver were collected at each time point. Blood was processed and detected as mentioned previously. The heart and liver were homogenized and added extractant. The protein of tissue samples was precipitated by vortex oscillation, and the supernatant was collected and determined by LC-MS/MS procedures.

[3] = tested on: HFD-CHOL hamster model; experiment: HFD-CHOL hamster model, serum biochemical test; type: in vivo, golden hamster; details: mean ± SD; for HDL-c: model 3.6 ± 1.1, normal 1.6 ± 0.45; for LDL-c: model 17 ± 6.1, normal 1.3 ± 0.54; for TG: model 26 ± 24, normal 2.1 ± 1.1; for TC: model 37 ± 13, normal 3.1 ± 0.72; for ALT: model 278 ± 174, normal 94 ± 58; for AST: model 638 ± 323, normal 98 ± 45
Procedure: Hamster study: 58 golden hamsters ♂ aged 6–8 weeks were purchased from Beijing Vital River Laboratory Animal Technology Co., Ltd. 10 animals were kept with a diet of food control as normal control, and the other 48 animals were fed 40% fat and 1.25% cholesterol (HFD-CHOL, D12108C, Research diet) as a model group. […] Animals in the normal and model group were given solvent by oral gavage. All drugs, including solvent, were administered consecutively for 4 weeks and once a day. After sacrifice, blood was collected and serum was isolated for the AST, ALT, TG, TC, LDL-c, and HDL-c test.

[4] = tested on: HFD SD rat model; experiment: HFD SD rat model, biochemical, organ weight ratio, liver lipid and liver pathology; type: in vivo; details: for Liver TC / Liver TG: HFD SD rat liver; for Liver TC / Liver TG / TG / HDL-c / LDL-c / TC / ALT / AST / H/B (heart/body weight ratio) / L/B (liver/body weight ratio): mean ± SD; for Liver TC: model 13 ± 2.2, normal 6.0 ± 0.76; for Liver TG: model 102 ± 36, normal 0.75 ± 12; for TG / HDL-c / LDL-c / TC / ALT / AST: HFD SD rat serum; for TG: model 0.82 ± 0.73, normal 0.53 ± 0.34; for HDL-c: model 1.2 ± 0.44, normal 1.1 ± 0.13; for LDL-c: model 9.7 ± 6.1, normal 0.28 ± 0.06; for TC: model 20 ± 13, normal 1.5 ± 0.20; for ALT: model 166 ± 95, normal 32 ± 6.8; for AST: model 365 ± 212, normal 103 ± 21; for H/B (heart/body weight ratio): model 0.24 ± 0.02, normal 0.28 ± 0.02; for L/B (liver/body weight ratio): model 5.1 ± 0.75, normal 2.8 ± 0.26
Procedure: SD rat study: 58 SD rats ♂ aged 5–6 weeks were purchased from Beijing Huafukang Biotechnology Co., Ltd. 9 animals were kept with a food control diet as normal control, and the other 49 animals were fed 40% fat, 1.25% cholesterol and 0.5% sodium cholate (HFD, D12109C, SYSE BIO, Changzhou, China) as a model group. […] Animals in the normal and model groups were given solvent by oral gavage. All drugs, including solvent, were administered consecutively for 4 weeks and once a day. After sacrifice, blood was collected and serum was isolated for the AST, ALT, TG, TC, LDL-c, and HDL-c test, and livers and hearts were weighed to calculate the liver weight ratio and the heart weight ratio, respectively. The right lobe of the liver of each rat was harvested for the TG and TC test (A110-1-1 and A111-1-1, Nanjing Jiancheng Institute of Bioengineering, Nanjing, China) according to the manufacturer's instructions. The left lobe of the liver was collected for hematoxylin-eosin staining (H and E staining) to quantify liver steatosis, inflammation, and ballooning.
(§1) The liver samples were fixed in 10% formalin and embedded in paraffin using standard methods. The 4 μm paraffin sections were then assessed for liver histology by H and E staining and liver fibrosis by sirius red staining. The stained sections were panoramic scanned with a NanoZoomer Digital Pathology scanner (S210, Hamamatsu, Japan), and then observed with different visual fields at different magnifications, and scored for different liver lobes in the sections. The total NAS score represents the sum of the scores for steatosis (0–3), lobular inflammation (0–3), and ballooning (0–2), and ranges from 0–8 [30]. VIS7.0 software was used to analyze the area of liver fibrosis in the panoramic scanning SR staining sections, and the percentage of liver fibrosis area in the whole section area was calculated.

[5] = tested on: WD + CCL4 mouse model; experiment: WD + CCL4 mouse model, biochemical, liver weight ratio and liver pathology; type: in vivo, C57/B6 mouse; details: for LDL-c / TG / HDL-c / TC / CK activity / AST / ALT: WD + CCL4 mouse serum; for LDL-c / TG / HDL-c / TC / CK activity / AST / ALT / L/B (liver/body weight ratio): mean ± SD; for LDL-c: model 1.1 ± 0.35, normal 0.43 ± 0.04; for TG: model 1.2 ± 0.34, normal 0.91 ± 0.14; for HDL-c: model 1.5 ± 0.25, normal 2.0 ± 0.08; for TC: model 4.1 ± 0.97, normal 3.0 ± 0.10; for CK activity: model 345 ± 268, normal 334 ± 193; for AST: model 10245 ± 4955, normal 116 ± 71; for ALT: model 14003 ± 4205, normal 54 ± 15; for L/B (liver/body weight ratio): model 3.5 ± 0.27, normal 3.5 ± 0.27
Procedure: C57/B6 mouse study: 61 C57/B6 mice ♂ aged 6–7 weeks were purchased from Beijing Vital River Laboratory Animal Technology Co., Ltd. Six animals were kept with a chow diet as normal control, and the other 55 animals were fed 60% fat diet (Western diet, D12492, Research diet) as the model group. […] Animals in the normal and model groups were given solvent by oral gavage. All drugs, including solvent, were administered consecutively for 4 weeks and once a day. After sacrifice, blood was collected and serum was isolated for the AST, ALT, TG, TC, LDL-c, HDL-c, and CK tests, and the livers were weighed to calculate the liver weight ratio. The left lobe of the liver of each mouse was collected for hematoxylin-eosin staining (H and E staining) and sirius red staining.
as §1

[6] = Observation of diarrhea in treated animals; type: in vivo, rodents; details: animal studies
[7] = heart, read-out: Heart concentration
[8] = liver, read-out: Liver concentration
[9] = serum, read-out: Serum concentration
[10] = 3 mg/kg (L) oral once a day 4 weeks
[11] = 10 mg/kg (CS27109-M, MGL-3196) oral once a day 4 weeks
[12] = 30 mg/kg (H) oral once a day 4 weeks
[13] = 5 mg/kg (L) oral once a day 4 weeks
[14] = 15 mg/kg (CS27109-M, MGL-3196) oral once a day 4 weeks
[15] = 45 mg/kg (H) oral once a day 4 weeks
[16] = HFD SD rat, 5 mg/kg (L) oral once a day 4 weeks
[17] = HFD SD rat, 15 mg/kg (CS27109-M, MGL-3196) oral once a day 4 weeks
[18] = HFD SD rat, 45 mg/kg (H) oral once a day 4 weeks
[19] = WD + CCL4 mouse, 4 weeks, MGL3196 10 mg/kg, CS27109 high-dose (30 mg/kg), vs model

T1 sequence (Q12809 whole entry): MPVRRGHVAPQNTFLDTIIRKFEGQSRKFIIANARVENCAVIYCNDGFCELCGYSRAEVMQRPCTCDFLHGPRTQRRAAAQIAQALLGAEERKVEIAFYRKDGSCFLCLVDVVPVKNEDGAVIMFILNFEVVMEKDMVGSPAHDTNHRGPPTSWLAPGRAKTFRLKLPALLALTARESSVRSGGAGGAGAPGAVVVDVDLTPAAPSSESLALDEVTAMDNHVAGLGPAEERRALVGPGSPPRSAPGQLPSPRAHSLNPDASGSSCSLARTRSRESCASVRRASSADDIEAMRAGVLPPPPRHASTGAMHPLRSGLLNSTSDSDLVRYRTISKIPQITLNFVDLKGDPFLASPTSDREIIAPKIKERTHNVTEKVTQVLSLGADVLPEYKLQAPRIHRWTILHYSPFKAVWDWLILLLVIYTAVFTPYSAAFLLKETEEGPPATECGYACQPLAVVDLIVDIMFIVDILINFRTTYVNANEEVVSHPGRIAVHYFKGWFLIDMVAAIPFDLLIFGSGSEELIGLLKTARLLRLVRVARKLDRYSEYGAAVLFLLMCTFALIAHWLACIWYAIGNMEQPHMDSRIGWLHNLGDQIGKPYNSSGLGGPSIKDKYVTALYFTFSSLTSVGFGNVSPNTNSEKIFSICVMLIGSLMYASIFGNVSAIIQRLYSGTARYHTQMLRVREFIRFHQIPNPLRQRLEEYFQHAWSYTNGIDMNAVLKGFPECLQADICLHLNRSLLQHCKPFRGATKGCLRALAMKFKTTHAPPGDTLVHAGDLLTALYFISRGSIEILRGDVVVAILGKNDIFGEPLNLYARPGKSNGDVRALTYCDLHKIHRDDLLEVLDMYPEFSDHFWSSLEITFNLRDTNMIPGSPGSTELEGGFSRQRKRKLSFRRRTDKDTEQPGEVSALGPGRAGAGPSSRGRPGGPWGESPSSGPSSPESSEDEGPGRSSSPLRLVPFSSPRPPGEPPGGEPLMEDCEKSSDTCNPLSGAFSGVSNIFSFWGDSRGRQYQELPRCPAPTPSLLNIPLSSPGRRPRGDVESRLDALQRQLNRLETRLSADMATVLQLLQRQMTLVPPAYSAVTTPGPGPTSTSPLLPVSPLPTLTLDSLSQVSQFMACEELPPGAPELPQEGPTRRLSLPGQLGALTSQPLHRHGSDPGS

## N#Cc1nn(-c2cc(Br)c(Oc3n[nH]c(=O)c4ccccc34)c(Br)c2)c(=O)[nH]c1=O [CS27109]
[1]
  IC50: > 30 µM
  hERG test result: cardiac tolerable
[2]; 10 mg/kg oral, average of 2H and 8H
  average of concentration liver/heart: 26.69
[2]; [7]
  concentration at 2 h: 95.7 ng/g
  concentration at 8 h: 309 ng/g
[2]; [8]
  concentration at 2 h: 1670 ng/g
  concentration at 8 h: 11100 ng/g
[2]; [9]
  concentration at 2 h: 670 ng/mL
  concentration at 8 h: 3620 ng/mL
[3]; [10]
  HDL-c: 2.6 ± 0.62 mmol/L
  LDL-c: 13 ± 4.3 mmol/L
  TG: 32 ± 31 mmol/L
  TC: 29 ± 8.6 mmol/L
  ALT: 226 ± 104 U/L
  AST: 564 ± 317 U/L
[3]; [11]
  HDL-c: 3.0 ± 0.52 mmol/L
  LDL-c: 12 ± 3.8 mmol/L
  TG: 17 ± 26 mmol/L
  TC: 25 ± 7.4 mmol/L
  ALT: 141 ± 133 U/L
  AST: 582 ± 383 U/L
[3]; [12]
  HDL-c: 2.6 ± 0.53 mmol/L
  LDL-c: 8.7 ± 4.1 mmol/L
  TG: 11 ± 19 mmol/L
  TC: 19 ± 7.9 mmol/L
  AST: 416 ± 158 U/L
[4]; [13]
  Liver TC: 11 ± 1.1 µmol/g
  Liver TG: 71 ± 28 µmol/g
  TG: 0.19 ± 0.08 mmol/L
  HDL-c: 0.78 ± 0.18 mmol/L
  LDL-c: 1.6 ± 0.74 mmol/L
  TC: 4.4 ± 1.8 mmol/L
  ALT: 85 ± 34 U/L
  AST: 213 ± 78 U/L
[4]; [14]
  Liver TC: 10 ± 0.74 µmol/g
  Liver TG: 54 ± 24 µmol/g
  TG: 0.22 ± 0.06 mmol/L
  HDL-c: 0.98 ± 0.32 mmol/L
  LDL-c: 0.84 ± 0.44 mmol/L
  TC: 2.9 ± 0.98 mmol/L
  ALT: 68 ± 24 U/L
  AST: 218 ± 82 U/L
[4]; [15]
  Liver TC: 10 ± 2.2 µmol/g
  Liver TG: 69 ± 21 µmol/g
  TG: 0.20 ± 0.08 mmol/L
  HDL-c: 1.0 ± 0.30 mmol/L
  LDL-c: 0.59 ± 0.32 mmol/L
  TC: 2.3 ± 0.65 mmol/L
  ALT: 89 ± 50 U/L
  AST: 253 ± 131 U/L
[4]; HFD SD rat, 4 weeks, CS27109 5-45 mg/kg dose-dependent, MGL3196 15 mg/kg, vs model
  liver steatosis score (H and E): lessened steatosis
[4]; HFD SD rat, 4 weeks, CS27109 5-45 mg/kg, MGL3196 15 mg/kg, vs model
  liver inflammation score (H and E): dose-dependently reduced liver inflammation, but without a significant effect
[4]; HFD SD rat, 4 weeks, high dose CS27109 (45 mg/kg) only, vs model
  NAS score: decreased the NAS score
[4]; [16]
  H/B (heart/body weight ratio): 0.27 ± 0.03%
  L/B (liver/body weight ratio): 4.0 ± 0.52 %
[4]; [17]
  H/B (heart/body weight ratio): 0.28 ± 0.02 %
  L/B (liver/body weight ratio): 4.1 ± 0.56 %
[4]; [18]
  H/B (heart/body weight ratio): 0.27 ± 0.02%
  L/B (liver/body weight ratio): 3.9 ± 0.54 %
[5]; [10]
  LDL-c: 0.40 ± 0.10 mmol/L
  TG: 1.2 ± 0.34 mmol/L
  HDL-c: 0.85 ± 0.24 mmol/L
  TC: 2.3 ± 0.40 mmol/L
  CK activity: 331 ± 386 U/L
  AST: 13447 ± 6633 U/L
  ALT: 19162 ± 4012 U/L
[5]; [11]
  LDL-c: 0.37 ± 0.07 mmol/L
  TG: 1.2 ± 0.19 mmol/L
  HDL-c: 0.94 ± 0.25 mmol/L
  TC: 2.2 ± 0.36 mmol/L
  CK activity: 201 ± 95 U/L
  AST: 4804 ± 1121 U/L
  ALT: 10478 ± 2131 U/L
[5]; [12]
  LDL-c: 0.39 ± 0.11 mmol/L
  TG: 1.2 ± 0.18 mmol/L
  HDL-c: 1.2 ± 0.31 mmol/L
  TC: 2.4 ± 0.48 mmol/L
  CK activity: 280 ± 147 U/L
  AST: 3660 ± 1208 U/L
  ALT: 7832 ± 2422 U/L
[5]; [19]
  liver inflammation score (H and E): notable reduction
  liver steatosis score (H and E): notable reduction
[5]; WD + CCL4 mouse, 4 weeks, only low-dose CS27109 (3 mg/kg), vs model
  liver ballooning score (H and E): significantly reduced liver ballooning
[5]; WD + CCL4 mouse, 4 weeks, three doses of CS27109 (3, 10, 30 mg/kg), MGL3196 10 mg/kg, vs model
  area of liver fibrosis (sirius red): prominently reduced the area of the fibrosis
[5]; WD + CCL4 mouse, 3 mg/kg (L) oral once a day 4 weeks
  L/B (liver/body weight ratio): 3.3 ± 0.40%
[5]; WD + CCL4 mouse, 10 mg/kg (CS27109-M, MGL-3196) oral once a day 4 weeks
  L/B (liver/body weight ratio): 3.2 ± 0.68%
[5]; WD + CCL4 mouse, 30 mg/kg (H) oral once a day 4 weeks
  L/B (liver/body weight ratio): 3.2 ± 0.79%
[6]
  diarrhea in treated animals: rarely observed
